Measured values taken from patent US5622725A, “Wound disinfection and repair” (Alcide Corporation, priority 1996, dated 1997).

System: Staphylococcus epidermidis biofilms
Experiment: Sterilization of S. epidermidis biofilms, minimal exposure time at 22° C. (supravital dye, confirmed by culture)
Format: cell-based
Description: This example compares and contrasts the cidal effectiveness of compositions of the invention with other disinfectants and antibiotics against Staphylococcus epidermidis biofilms, which are frequently observed on the surface of C.A.P.D. peritoneal catheters even in the absence of peritonitis or exit site infections.
A strain of S. epidermidis with characteristic abundant slime production, and derived from a human source, is used to prepare the biofilms. The isolate is fully sensitive in the fluid phase to all commonly used antibiotics as assayed using routine test methods. Aliquots of the bacteria are frozen at -70° C. in 10% glycerol broth or propagated on 5% defibrinated horse blood agar. Standardized biofilms are formed on soda glass microscope slides or slides coated with Silastic® (the basic material of indwelling catheters; see Cecil's, cited above, on page 542), placed in Petri dishes containing 20 ml of tryptone soya broth (Oxoid Ltd., England), seeded with 10^4 cfu S. epidermidis and incubated for 18 hours at 37° C. Reproducible uniform and confluent S. epidermidis biofilms of minimal density are formed.
Antibiotic activity against S. epidermidis biofilms are determined using a supravital dye which acts as an electron acceptor in coupled oxidative systems in biofilm bacteria. The method allows the bacteria to be examined undisturbed within the biofilm matrix in situ. Briefly stated, the biofilms are exposed to antibiotic solutions and incubated at […] for varying periods of time. Positive (viable, 1% peptone water) and negative (sterilized, 4% formol-peptone) controls are included in all experiments. After a designated exposure at 22° C. for varying periods of time between 15 seconds to 6 hours, the biofilms are rinsed twice in sterile water and allowed to drain. They are then placed in a flat agar medium incorporating substantive dyes and incubated at 37° C. for 4 hours, then 24 hours. Viability is assessed visually by a change in dye color and confirmed after 24 hours by mechanically scraping and subsequently culturing the biofilms. Sterilization is indicated by the absence of color changes and confirmed by culture of both intact and mechanically fragmented biofilms. Inhibition of growth is indicated by a lack of color change after a 4-hour incubation and confirmed by a positive color change by 24 hours.

SMILES | contact time relative to 50 ppm ClO2 to destroy the organisms in the biofilm (3% concentration, vs 50 ppm ClO2) [times] | Exposure Time (22° C.) for Film Sterilization [min] | Exposure Time (22° C.) for Film Sterilization (100 μg/ml) [min]
OO [Hydrogen Peroxide (3%), Hydrogen Peroxide] | 1200 | 10 | –
CO[C@H]1/C=C/O[C@@]2(C)Oc3c(C)c(O)c4c(O)c(c(/C=N/N5CCN(C)CC5)c(O)c4c3C2=O)NC(=O)/C(C)=C\C=C\[C@H](C)[C@H](O)[C@@H](C)[C@@H](O)[C@@H](C)[C@H](OC(C)=O)[C@@H]1C [rifampin] | – | – | 360
